Substitutions are numbered along the chain they refer to. Like-named read-outs stand apart in the source and are kept apart here.
Legend:
Assay type in all cases: cell-based
[1] = target: T1, GPR39 receptors on m39-20 cell lines (Mus musculus, UniProt Q5U431, T447P); experiment: FLIPR calcium imaging on m39-20 cell lines stably expressing murine-derived GPR39; conditions: for intracellular calcium signals in m39-20 cell lines: FIG. 1
T1 construct: P2A-mCherry (C); expressed in transfected cells
T1 sequence (Q5U431 1-456 T447P): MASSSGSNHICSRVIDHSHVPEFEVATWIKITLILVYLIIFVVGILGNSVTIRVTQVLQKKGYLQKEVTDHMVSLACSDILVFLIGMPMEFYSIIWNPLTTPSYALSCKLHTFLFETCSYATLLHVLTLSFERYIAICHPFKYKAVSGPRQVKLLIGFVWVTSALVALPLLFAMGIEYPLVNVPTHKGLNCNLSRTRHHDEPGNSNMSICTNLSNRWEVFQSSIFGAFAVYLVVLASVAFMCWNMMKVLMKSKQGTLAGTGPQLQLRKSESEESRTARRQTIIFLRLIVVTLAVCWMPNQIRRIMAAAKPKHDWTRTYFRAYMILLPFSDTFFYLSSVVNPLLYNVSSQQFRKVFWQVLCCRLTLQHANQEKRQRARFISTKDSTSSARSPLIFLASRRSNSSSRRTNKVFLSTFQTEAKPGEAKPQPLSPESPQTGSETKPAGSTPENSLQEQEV
Text: Intracellular calcium imaging is a routine technique to study cell functions, the basic principle of which is to detect the concentration of the calcium ion in tissues or cells using a calcium indicator, thereby reflecting certain reactions in the tissues or cells. In the present application, the intracellular calcium released from a cell line that stably or transiently expresses GPR39 is detected using Fluo8-AM, a calcium fluorescent indicator, so as to determine the activation of the GPR39 receptor by the bile acid and derivative thereof.
HEK293T cells (purchased from ATCC) were seeded in a 6-well plate (coming Co.) at an appropriate density (about 0.5-2×10^5/well). When the cell density reached above 30%, the plasmid PLVXK-mGPR39-P2A-mCherry was transfected with Lipofectamine 3000 (Invitrogen) at a concentration of 2 μg per well. The cells were passaged 24 hours after transfection, the puromycin (gibco) was added into the medium at a concentration of 2 μg/mL for antibiotic screening of cells. After 2-4 days of continuous screening, the cells screened for puromycin resistance were trypsinized and screened by flow cytometry for monoclones with red fluorescence. And these monoclones were seeded in a 96-well plate and cultured in a medium without puromycin for around 10 days. Cell colonies with red fluorescence were sorted under a fluorescence microscope, trypsinized and then passaged and expanded in a 6-well plate. Cell lines m39-20 stably expressing murine-derived GPR39 were obtained through the above methods.
Calcium dye Fluo8-AM (ATT bioquest Co.) was dissolved in DMSO solvent to formulate a stock solution of 1 μg/μL. […] After then, the calcium dye working solution was replaced with the 4K solution (50 μL per well), and acclimated for 5 min at room temperature for the subsequent calcium imaging experiment.
Bile acids and derivatives thereof as listed in Table 1 below were dissolved in dimethyl sulfoxide (DMSO, Sigma Co.) solvent to formulate a stock solution of 50 mM, which was stored at −20° C. During calcium imaging with FLIPR, the drug was diluted with the above 4K solution into a working concentration of 400 μM, and packaged into another 96-well plate. […] The instrument parameters were set so that 50 μL of the drug solution may be added into the culture wells within 2 s. The fluorescence recording result within the first 30 seconds was used as the baseline value. The FLIPR robot arm was programmed to automatically add bile acids and derivatives thereof into the cell sample culture wells at the 31st second. 1% of DMSO solvent was used as the blank control.
After that, the calcium dye working solution was replaced with a 4K solution containing 4 μM zinc ions (50 μL per well), followed by acclimation for 5 min at room temperature.

[2] = target: T2, GPR39 mutant D330A (Mus musculus, UniProt Q5U431, D330A); experiment: Calcium imaging of GPR39 activation site mutant, transiently transfected cells; conditions: FIG. 7
T2 construct: 3HA (N); P2A-mCherry (C); expressed in transfected cells; host or cells: HEK293T, transient (Lipofectamine 3000)
T2 sequence (Q5U431 1-456 D330A): T1 sequence (Q5U431 1-456 T447P) with D330A, P447T
Text: (§1) GPR39 mutants E90A, F115A, E116A and D330A were firstly constructed according to the method of Example 5.

[3] = target: T3, GPR39 mutant F115A (Mus musculus, UniProt Q5U431, F115A); experiment: as above; conditions: FIG. 7
T3 construct: 3HA (N); P2A-mCherry (C); expressed in transfected cells; host or cells: HEK293T, transient (Lipofectamine 3000)
T3 sequence (Q5U431 1-456 F115A): T1 sequence (Q5U431 1-456 T447P) with F115A, P447T
Text: as §1

[4] = tested on: GPR39; experiment: Confocal calcium imaging of Ghrelin receptor family; conditions: 200 μM

| SMILES | EC50 ([1]; Bile acid + 4 μM zinc ions EC50, m39-20 cells, 4 μM zinc ions) | intracellular calcium signals in m39-20 cell lines [1] | intracellular calcium signaling response in m39-20 cells ([1]; absence of zinc ions) | Only bile acid Efficacy ([1]; activation efficacy, m39-20 cells, no zinc ions) | change of activation efficacy after the addition of zinc ions ([1]; m39-20 cells, Table 1, FIG. 2) | activation capacity on GPR39 receptors among the bile acids ([1]; m39-20 cells, dose curves) | EC50 ([1]; m39-20 cells, no zinc ions, read-out: Only bile acid EC50) | EC50 ([1]; m39-20 cells, zinc ions 0 μM, read-out: EC50) | EC50 ([1]; m39-20 cells, zinc ions 0.05 μM, read-out: EC50) | EC50 ([1]; m39-20 cells, zinc ions 0.1 μM, read-out: EC50) | EC50 ([1]; m39-20 cells, zinc ions 0.2 μM, read-out: EC50) | EC50 ([1]; m39-20 cells, zinc ions 0.4 μM, read-out: EC50) | EC50 ([1]; m39-20 cells, zinc ions 1 μM, read-out: EC50) | EC50 ([1]; m39-20 cells, zinc ions 2 μM, read-out: EC50) | EC50 ([1]; m39-20 cells, zinc ions 4 μM, read-out: EC50) | activation of mutant D330A (calcium imaging) [2] | activation of mutant F115A (calcium imaging) [3] | activation of GPR39 (calcium imaging) [4] |
| --- | --- | --- | --- | --- | --- | --- | --- | --- | --- | --- | --- | --- | --- | --- | --- | --- | --- | --- |
| C[C@H](CCC(=O)O)[C@H]1CC[C@H]2[C@@H]3CC[C@@H]4C[C@H](OS(=O)(=O)O)CC[C@]4(C)[C@H]3CC[C@]12C [LCAS] | 0.88 ± 0.16 µM | varying extents of intracellular calcium signals | strong intracellular calcium signaling response | 111.1 ± 3.9% | increases slightly | strongest activation capacity | 41 ± 4.5 µM | 31 ± 2.1 µM | 30.7 ± 2.4 µM | 30.6 ± 2 µM | 25.4 ± 1.1 µM | 20.1 ± 0.67 µM | 6.4 ± 0.67 µM | 1.9 ± 0.03 µM | 0.7 ± 0.03 µM | activated | activated | may be activated |
| [Zn+2] [Zinc ions, reference compound] | – | inducing intracellular calcium signals | – | – | – | – | – | – | – | – | – | – | – | – | – | – | – | – |

From patent US12569502B2, “Use of bile acids and derivatives thereof in preparation of GPR39 agonist” (PEKING UNIVERSITY, priority 2019, dated 2026)
